The record followed here is patent US20200255478A1, “NOVEL COMPOUNDS ACTIVATING THE NRF2 PATHWAY” (Almirall, S.A., priority 2017, published 2020).

Starred links: 1 amine or outer side, 2 acyl side, 3 side chain; linkers in the order of their positions; H or OH if unused. Positions of bridges follow the written chain, without caps; N, C: chain ends. Non-standard residues stand in square brackets, D forms with d. Residues, ends and D or L forms follow the SMILES beside them. *: point of attachment. X8 = O=C([C@H](Cc1cccc([*:3])c1)N[*:1])[*:2]; X3 = O=C([C@H](Cc1ccccc1[*:3])N[*:1])[*:2]; X7 = c1ccc(-c2ccccc2C[*:2])c(C[*:1])c1; mXylylene = c1cc(C[*:1])cc(C[*:2])c1; oXylylene = c1ccc(C[*:2])c(C[*:1])c1; X2 = c1ccc2cc(C[*:2])c(C[*:1])cc2c1; X6 = c1ccc2nc(C[*:2])c(C[*:1])nc2c1; Stearoyl = CCCCCCCCCCCCCCCCCC(=O)*; βAla = NCCC(=O)O

For orientation: IC50 means the concentration at which inhibition is half-maximal.

Sequence of Keap1-Maltose Binding Protein (MBP tag) (Q14145 whole entry): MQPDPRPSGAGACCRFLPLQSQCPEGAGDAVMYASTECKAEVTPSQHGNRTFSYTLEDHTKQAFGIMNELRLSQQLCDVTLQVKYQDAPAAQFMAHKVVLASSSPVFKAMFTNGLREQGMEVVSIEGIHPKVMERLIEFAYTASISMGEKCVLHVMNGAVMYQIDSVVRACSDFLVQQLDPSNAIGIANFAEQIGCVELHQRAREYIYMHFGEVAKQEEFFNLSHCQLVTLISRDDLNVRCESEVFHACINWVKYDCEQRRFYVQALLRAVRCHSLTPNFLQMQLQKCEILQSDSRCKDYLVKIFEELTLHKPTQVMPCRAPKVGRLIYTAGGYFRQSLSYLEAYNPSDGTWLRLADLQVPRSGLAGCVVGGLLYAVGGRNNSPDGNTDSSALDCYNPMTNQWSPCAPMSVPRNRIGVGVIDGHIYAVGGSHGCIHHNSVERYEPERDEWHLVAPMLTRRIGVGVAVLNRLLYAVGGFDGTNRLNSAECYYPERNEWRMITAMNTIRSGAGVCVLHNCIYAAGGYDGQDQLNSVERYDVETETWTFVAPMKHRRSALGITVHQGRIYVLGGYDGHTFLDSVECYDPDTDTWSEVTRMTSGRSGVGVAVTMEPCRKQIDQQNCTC

The experiment concerns the target Keap1-Maltose Binding Protein (MBP tag) (Homo sapiens, UniProt Q14145). The experiment is described as follows: Nrf2-Keap1 HTRF (TR-FRET) binding assay: displacement of biotinylated ETGE peptide from Keap1-MBP. The conditions noted are these: HTRF (TR-FRET); displacement of ETGE-biotin from Keap1-MBP; values banded into grades; read-out: Binding (IC50) ETGE-Keap1.
On to `CC(=O)N[C@H]1CSCc2ccccc2CSC[C@@H](C(N)=O)NC(=O)[C@H](CCC(=O)O)NC(=O)CNC(=O)[C@H]([C@@H](C)O)NC(=O)[C@H](CCC(=O)O)NC(=O)[C@H](C)NC(=O)[C@H](CC(=O)O)NC1=O` [Example 20, {[Acetyl-Cys(&^1)-Asp-Ala-Glu-Thr-Gly-Glu-Cys(&^2)-NH2][&^1(1,2-phenylenediyl)dimethylene&^2]}], for which the IC50 fell in the range of 1 to 100 nM.

`CC(=O)N[C@H]1Cc2cccc(c2)SC[C@@H](C(N)=O)NC(=O)[C@H](CCC(=O)O)NC(=O)CNC(=O)[C@H]([C@@H](C)O)NC(=O)[C@H](CCC(=O)O)NC(=O)[C@H](CCC(=O)O)NC(=O)[C@H](CC(=O)O)NC1=O` [Example 22, Acetyl-Phe(m-&^1)-Asp-Glu-Glu-Thr-Gly-Glu-Cys(&^1)-NH2] (Ac-[X8]DEETGEC-NH2; thioether 1-8): the IC50 fell in the range of 1 to 100 nM.

As for `CC(=O)N[C@H]1Cc2ccccc2SC[C@@H](C(N)=O)NC(=O)[C@H](CCC(=O)O)NC(=O)CNC(=O)[C@H]([C@@H](C)O)NC(=O)[C@H](CCC(=O)O)NC(=O)[C@H](CCC(=O)O)NC(=O)[C@H](CC(=O)O)NC1=O` [Example 23, Acetyl-Phe(o-&^1)-Asp-Glu-Glu-Thr-Gly-Glu-Cys(&^1)-NH2] (Ac-[X3]DEETGEC-NH2; thioether 1-8), the IC50 was in the range of 1 to 100 nM. Take `CC(=O)N[C@H]1CSCc2ccccc2-c2ccccc2CSC[C@@H](C(N)=O)NC(=O)[C@H](CCC(=O)O)NC(=O)CNC(=O)[C@H]([C@@H](C)O)NC(=O)[C@H](CCC(=O)O)NC(=O)[C@H](CCC(=O)O)NC(=O)[C@H](CC(=O)O)NC1=O` [Example 24, {[Acetyl-Cys(&^1)-Asp-Glu-Glu-Thr-Gly-Glu-Cys(&^2)-NH2][&^1(1,1′-biphenyl)2,2′-diyldimethylene&^2]}] (Ac-CDEETGEC-NH2; linker 1-8 via X7): the 50% inhibitory concentration (IC50) fell in the range of 1 to 100 nM. In the case of `CC(=O)N[C@H]1CSCc2nc3ccccc3nc2CSC[C@@H](C(N)=O)NC(=O)[C@H](CCC(=O)O)NC(=O)CNC(=O)[C@H]([C@@H](C)O)NC(=O)[C@H](CCC(=O)O)NC(=O)[C@H](CCC(=O)O)NC(=O)[C@H](CC(=O)O)NC1=O` [Example 26, {[Acetyl-Cys(&^1)-Asp-Glu-Glu-Thr-Gly-Glu-Cys(&^2)-NH2][&^1(quinoxaline)2,3-diyldimethylene&^2]}] (Ac-CDEETGEC-NH2; linker 1-8 via X6) it was 1 to 100 nM; in that of `CC(=O)N[C@H]1CSCc2cc3ccccc3cc2CSC[C@@H](C(N)=O)NC(=O)[C@H](CCC(=O)O)NC(=O)CNC(=O)[C@H]([C@@H](C)O)NC(=O)[C@H](CCC(=O)O)NC(=O)[C@H](CCC(=O)O)NC(=O)[C@H](CC(=O)O)NC1=O` [Example 27, {[Acetyl-Cys(&^1)-Asp-Glu-Glu-Thr-Gly-Glu-Cys(&^2)-NH2][&^1(naphthalene)2,3-diyldimethylene&^2]}] (Ac-CDEETGEC-NH2; linker 1-8 via X2), 1 to 100 nM.

Take `CCCCCCCCCCCCCCCCCC(=O)NCCC(=O)N[C@H]1CSCc2ccccc2CSC[C@@H](C(N)=O)NC(=O)[C@H](CCC(=O)O)NC(=O)CNC(=O)[C@H]([C@@H](C)O)NC(=O)[C@H](CCC(=O)O)NC(=O)[C@H](C)NC(=O)[C@H](CC(=O)O)NC1=O` [Example 28, {[Stearyl-βAla-Cys(&^1)-Asp-Ala-Glu-Thr-Gly-Glu-Cys(&^2)-NH2][&^1(1,2-phenylenediyl)dimethylene&^2]}]: the IC50 lay in the range of 1 to 100 nM. In the case of `CC(C)C[C@H](NC(=O)[C@@H]1CSCc2cc3ccccc3cc2CSC[C@H](NC(=O)[C@H](CCC(N)=O)NC(=O)[C@@H](N)CC(C)C)C(=O)N[C@@H](CC(=O)O)C(=O)N[C@@H](C)C(=O)N[C@@H](CCC(=O)O)C(=O)N[C@@H]([C@@H](C)O)C(=O)NCC(=O)N[C@@H](CCC(=O)O)C(=O)N1)C(=O)N1CCC[C@H]1C(=O)NCCC(=O)N[C@@H](CCCNC(=N)N)C(=O)N[C@@H](CCCCN)C(=O)N[C@@H](CCCCN)C(=O)N[C@@H](CCCNC(=N)N)C(=O)N[C@@H](CCCNC(=N)N)C(=O)N[C@@H](CCC(N)=O)C(=O)N[C@@H](CCCNC(=N)N)C(=O)N[C@@H](CCCNC(=N)N)C(=O)N[C@@H](CCCNC(=N)N)C(N)=O` [Example 30] it was 1 to 100 nM; in that of `CC(C)C[C@H](NC(=O)[C@@H]1CSCc2ccccc2CSC[C@H](NC(=O)[C@H](CCC(N)=O)NC(=O)[C@@H](N)CC(C)C)C(=O)N[C@@H](CC(=O)O)C(=O)N2CCC[C@H]2C(=O)N[C@@H](CCC(=O)O)C(=O)N[C@@H]([C@@H](C)O)C(=O)NCC(=O)N[C@@H](CCC(=O)O)C(=O)N1)C(=O)N1CCC[C@H]1C(=O)NCCC(=O)N[C@@H](CCCNC(=N)N)C(=O)N[C@@H](CCCCN)C(=O)N[C@@H](CCCCN)C(=O)N[C@@H](CCCNC(=N)N)C(=O)N[C@@H](CCCNC(=N)N)C(=O)N[C@@H](CCC(N)=O)C(=O)N[C@@H](CCCNC(=N)N)C(=O)N[C@@H](CCCNC(=N)N)C(=O)N[C@@H](CCCNC(=N)N)C(N)=O` [Example 34], 1 to 100 nM; in that of `CCCCCCCCCCCCCCCCCC(=O)NCCC(=O)N[C@@H](CC(C)C)C(=O)N[C@@H](CCC(N)=O)C(=O)N[C@H]1CSCc2ccccc2CSC[C@@H](C(=O)N[C@@H](CC(C)C)C(=O)N2CCC[C@H]2C(=O)O)NC(=O)[C@H](CCC(=O)O)NC(=O)CNC(=O)[C@H]([C@@H](C)O)NC(=O)[C@H](CCC(=O)O)NC(=O)[C@@H]2CCCN2C(=O)[C@H](CC(=O)O)NC1=O` [Example 35, {[Stearyl-βAla-Leu-Gln-Cys(&^1)-Asp-Pro-Glu-Thr-Gly-G1u-Cys(&^2)-Leu-Pro-OH][&^1(1,2-phenylenediyl)dimethylene&^2]}] ({Stearoyl-βAla}-LQCDPETGECLP-OH; linker 3-10 via oXylylene), 1 to 100 nM. With `CCCCCCCCCCCCCCCCCC(=O)NCCC(=O)N[C@@H](CC(C)C)C(=O)N[C@@H](CCC(N)=O)C(=O)N[C@H]1CSCc2cc3ccccc3cc2CSC[C@@H](C(=O)N[C@@H](CC(C)C)C(=O)N2CCC[C@H]2C(=O)O)NC(=O)[C@H](CCC(=O)O)NC(=O)CNC(=O)[C@H]([C@@H](C)O)NC(=O)[C@H](CCC(=O)O)NC(=O)[C@@H]2CCCN2C(=O)[C@H](CC(=O)O)NC1=O` [Example 36, {[Stearyl-βAla-Leu-Gln-Cys(&^1)-Asp-Pro-Glu-Thr-Gly-Glu-Cys(&^2)-Leu-Pro-OH][&^1(naphthalene)2,3-diyldimethylene&^2]}] ({Stearoyl-βAla}-LQCDPETGECLP-OH; linker 3-10 via X2) the figure was 1 to 100 nM; with `CCCCCCCCCCCCCCCCCC(=O)NCCC(=O)N[C@@H](CC(C)C)C(=O)N[C@@H](CCC(N)=O)C(=O)N[C@H]1CSCc2cccc(c2)CSC[C@@H](C(=O)N[C@@H](CC(C)C)C(=O)N2CCC[C@H]2C(=O)O)NC(=O)[C@H](CCC(=O)O)NC(=O)CNC(=O)[C@H]([C@@H](C)O)NC(=O)[C@H](CCC(=O)O)NC(=O)[C@@H]2CCCN2C(=O)[C@H](CC(=O)O)NC1=O` [Example 37, {[Stearyl-βA1a-Leu-Gln-Cys(&^1)-Asp-Pro-Glu-Thr-Gly-Glu-Cys(&^2)-Leu-Pro-OH][&^1(1,3-phenylenediyl)dimethylene&^2]}] ({Stearoyl-βAla}-LQCDPETGECLP-OH; linker 3-10 via mXylylene), 1 to 100 nM. In the case of `CCCCCCCCCCCCCCCCCC(=O)NCCC(=O)N[C@@H](CC(C)C)C(=O)N[C@@H](CCC(N)=O)C(=O)N[C@H]1CSCc2cc3ccccc3cc2CSC[C@@H](C(=O)N[C@@H](CC(C)C)C(=O)N2CCC[C@H]2C(=O)O)NC(=O)[C@H](CCC(=O)O)NC(=O)CNC(=O)[C@H]([C@@H](C)O)NC(=O)[C@H](CCC(=O)O)NC(=O)[C@H](C)NC(=O)[C@H](CC(=O)O)NC1=O` [Example 38, {[Stearyl-βAla-Leu-Gln-Cys(&^1)-Asp-Ala-Glu-Thr-Gly-Glu-Cys(&^2)-Leu-Pro-OH][&^1(naphthalene)2,3-diyldimethylene&^2]}] ({Stearoyl-βAla}-LQCDAETGECLP-OH; linker 3-10 via X2) it was 1 to 100 nM. Turning to `CCCCCCCCCCCCCCCCCC(=O)NCCC(=O)N[C@@H](CC(C)C)C(=O)N[C@@H](CCC(N)=O)C(=O)N[C@H]1CSCc2cccc(c2)CSC[C@@H](C(=O)N[C@@H](CC(C)C)C(=O)N2CCC[C@H]2C(=O)O)NC(=O)[C@H](CCC(=O)O)NC(=O)CNC(=O)[C@H]([C@@H](C)O)NC(=O)[C@H](CCC(=O)O)NC(=O)[C@H](C)NC(=O)[C@H](CC(=O)O)NC1=O` [Example 39, {[Stearyl-βAla-Leu-Gln-Cys(&^1)-Asp-Ala-Glu-Thr-Gly-Glu-Cys(&^2)-Leu-Pro-OH][&^1(1,3-phenylenediyl)dimethylene&^2]}] ({Stearoyl-βAla}-LQCDAETGECLP-OH; linker 3-10 via mXylylene), the IC50 lay within 1 to 100 nM. In the case of `CCCCCCCCCCCCCCCCCC(=O)NCCC(=O)N[C@@H](CC(C)C)C(=O)N[C@@H](CCC(N)=O)C(=O)N[C@H]1Cc2cccc(c2)SC[C@@H](C(=O)N[C@@H](CC(C)C)C(=O)N2CCC[C@H]2C(=O)O)NC(=O)[C@H](CCC(=O)O)NC(=O)CNC(=O)[C@H]([C@@H](C)O)NC(=O)[C@H](CCC(=O)O)NC(=O)[C@@H]2CCCN2C(=O)[C@H](CC(=O)O)NC1=O` [Example 40, Stearyl-βAla-Leu-Gln-Phe(m-&^1)-Asp-Pro-Glu-Thr-Gly-Glu-Cys(&^1)-Leu-Pro-OH] ({Stearoyl-βAla}-LQ[X8]DPETGECLP-OH; thioether 3-10) it was 1 to 100 nM.

As to `CC(=O)N[C@H]1CSCc2ccccc2CSC[C@@H](C(N)=O)NC(=O)[C@H](CCC(=O)O)NC(=O)CNC(=O)[C@H]([C@@H](C)O)NC(=O)[C@H](CCC(=O)O)NC(=O)[C@H](C)N(C)C(=O)[C@H](CC(=O)O)NC1=O` [Example 43, {[Acetyl-Cys(&^1)-Asp-MeAla-Glu-Thr-Gly-Glu-Cys(&^2)-NH2][&^1(1,2-phenylenediyl)dimethylene&^2]}], the IC50 lay within 1 to 100 nM. With `CCCCCCCCCCCCCCCCCC(=O)NCCC(=O)N(C)[C@@H](CC(C)C)C(=O)N[C@@H](CCC(N)=O)C(=O)N[C@H]1CSCc2ccccc2CSC[C@@H](C(=O)N[C@@H](CC(C)C)C(=O)N2CCC[C@H]2C(N)=O)NC(=O)[C@H](CCC(=O)O)NC(=O)CNC(=O)[C@H]([C@@H](C)O)NC(=O)[C@H](CCC(=O)O)NC(=O)[C@@H]2CCCN2C(=O)[C@H](CC(=O)O)NC1=O` [Example 45, {[Stearyl-βAla-MeLeu-Gln-Cys(&^1)-Asp-Pro-Glu-Thr-Gly-Glu-Cys(&^2)-Leu-Pro-NH2][&^1(1,2-phenylenediyl)dimethylene&^2]}] the figure was 1 to 100 nM.
